Laboratory results published in PubChem BioAssay (NCI).
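Assay format: 96-well plates, 48-hour exposure. TGI denotes the concentration required for complete inhibition of growth.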

Test system: MALME-3M melanoma
Test: inhibition of tumour cell growth, NCI panel, 48 h

Row | Structure (SMILES) | TGI
1 | CCCCCCCCCCCCCCCCP(=O)(O)OCC(N)C(=O)O (configuration not stated) | > 100 µM
2 | O=C(CSc1ncccn1)N/N=C/c1ccccc1OCc1ccccc1 | > 100 µM
3 | CN1CCCC2C(c3ccccc3)C(C3=NCCCC3)C(c3ccccc3)CC21 (configuration not stated) | 37.6 µM

Test system: HOP-62 NSCLC
Test: inhibition of tumour cell growth, NCI panel, 48 h

Row | Structure (SMILES) | TGI
4 | CCCCCCCCCCCCCCCCP(=O)(O)OCC(N)C(=O)O (configuration not stated) | 47.9 µM
5 | O=C(CSc1ncccn1)N/N=C/c1ccccc1OCc1ccccc1 | 83.1 µM
6 | CN1CCCC2C(c3ccccc3)C(C3=NCCCC3)C(c3ccccc3)CC21 (configuration not stated) | > 100 µM

Test system: RPMI-8226 leukemia
Test: inhibition of tumour cell growth, NCI panel, 48 h

Row | Structure (SMILES) | TGI
7 | CCCCCCCCCCCCCCCCP(=O)(O)OCC(N)C(=O)O (configuration not stated) | 62.7 µM
8 | O=C(CSc1ncccn1)N/N=C/c1ccccc1OCc1ccccc1 | 43.6 µM
9 | CN1CCCC2C(c3ccccc3)C(C3=NCCCC3)C(c3ccccc3)CC21 (configuration not stated) | 54.1 µM

Test system: NCI-H460 lung
Test: inhibition of tumour cell growth, NCI panel, 48 h

Row | Structure (SMILES) | TGI
10 | CCCCCCCCCCCCCCCCP(=O)(O)OCC(N)C(=O)O (configuration not stated) | 64.9 µM
11 | O=C(CSc1ncccn1)N/N=C/c1ccccc1OCc1ccccc1 | 94.9 µM
12 | CN1CCCC2C(c3ccccc3)C(C3=NCCCC3)C(c3ccccc3)CC21 (configuration not stated) | > 100 µM

Test system: NCI-H23 lung
Test: inhibition of tumour cell growth, NCI panel, 48 h

Row | Structure (SMILES) | TGI
13 | CCCCCCCCCCCCCCCCP(=O)(O)OCC(N)C(=O)O (configuration not stated) | > 100 µM
14 | O=C(CSc1ncccn1)N/N=C/c1ccccc1OCc1ccccc1 | > 100 µM
15 | CN1CCCC2C(c3ccccc3)C(C3=NCCCC3)C(c3ccccc3)CC21 (configuration not stated) | > 100 µM

Test system: SK-MEL-2 melanoma
Test: inhibition of tumour cell growth, NCI panel, 48 h

Row | Structure (SMILES) | TGI
16 | CCCCCCCCCCCCCCCCP(=O)(O)OCC(N)C(=O)O (configuration not stated) | 78.7 µM
17 | O=C(CSc1ncccn1)N/N=C/c1ccccc1OCc1ccccc1 | 47.6 µM
18 | CN1CCCC2C(c3ccccc3)C(C3=NCCCC3)C(c3ccccc3)CC21 (configuration not stated) | > 100 µM

Test system: MDA-MB-231 breast
Test: inhibition of tumour cell growth, NCI panel, 48 h

Row | Structure (SMILES) | TGI
19 | CCCCCCCCCCCCCCCCP(=O)(O)OCC(N)C(=O)O (configuration not stated) | 82.7 µM
20 | O=C(CSc1ncccn1)N/N=C/c1ccccc1OCc1ccccc1 | 95.3 µM
21 | CN1CCCC2C(c3ccccc3)C(C3=NCCCC3)C(c3ccccc3)CC21 (configuration not stated) | > 100 µM

Test system: MDA-MB-435
Test: inhibition of tumour cell growth, NCI panel, 48 h

Row | Structure (SMILES) | TGI
22 | CCCCCCCCCCCCCCCCP(=O)(O)OCC(N)C(=O)O (configuration not stated) | > 100 µM
23 | O=C(CSc1ncccn1)N/N=C/c1ccccc1OCc1ccccc1 | 31.5 µM
24 | CN1CCCC2C(c3ccccc3)C(C3=NCCCC3)C(c3ccccc3)CC21 (configuration not stated) | 36.6 µM

Test system: OVCAR-3 ovarian
Test: inhibition of tumour cell growth, NCI panel, 48 h

Row | Structure (SMILES) | TGI
25 | CCCCCCCCCCCCCCCCP(=O)(O)OCC(N)C(=O)O (configuration not stated) | 79.3 µM
26 | O=C(CSc1ncccn1)N/N=C/c1ccccc1OCc1ccccc1 | 33.9 µM
27 | CN1CCCC2C(c3ccccc3)C(C3=NCCCC3)C(c3ccccc3)CC21 (configuration not stated) | > 100 µM

Test system: HT29 colon
Test: inhibition of tumour cell growth, NCI panel, 48 h

Row | Structure (SMILES) | TGI
28 | CCCCCCCCCCCCCCCCP(=O)(O)OCC(N)C(=O)O (configuration not stated) | > 100 µM
29 | O=C(CSc1ncccn1)N/N=C/c1ccccc1OCc1ccccc1 | > 100 µM
30 | CN1CCCC2C(c3ccccc3)C(C3=NCCCC3)C(c3ccccc3)CC21 (configuration not stated) | 67.6 µM

Test system: ACHN renal
Test: inhibition of tumour cell growth, NCI panel, 48 h

Row | Structure (SMILES) | TGI
31 | CCCCCCCCCCCCCCCCP(=O)(O)OCC(N)C(=O)O (configuration not stated) | 68.8 µM
32 | O=C(CSc1ncccn1)N/N=C/c1ccccc1OCc1ccccc1 | > 100 µM
33 | CN1CCCC2C(c3ccccc3)C(C3=NCCCC3)C(c3ccccc3)CC21 (configuration not stated) | > 100 µM

Test system: A549 NSCLC
Test: inhibition of tumour cell growth, NCI panel, 48 h

Row | Structure (SMILES) | TGI
34 | CCCCCCCCCCCCCCCCP(=O)(O)OCC(N)C(=O)O (configuration not stated) | > 100 µM
35 | O=C(CSc1ncccn1)N/N=C/c1ccccc1OCc1ccccc1 | > 100 µM
36 | CN1CCCC2C(c3ccccc3)C(C3=NCCCC3)C(c3ccccc3)CC21 (configuration not stated) | > 100 µM

Test system: COLO 205 colon
Test: inhibition of tumour cell growth, NCI panel, 48 h

Row | Structure (SMILES) | TGI
37 | CCCCCCCCCCCCCCCCP(=O)(O)OCC(N)C(=O)O (configuration not stated) | > 100 µM
38 | O=C(CSc1ncccn1)N/N=C/c1ccccc1OCc1ccccc1 | 38.8 µM
39 | CN1CCCC2C(c3ccccc3)C(C3=NCCCC3)C(c3ccccc3)CC21 (configuration not stated) | 66.1 µM

Test system: SF-539 CNS
Test: inhibition of tumour cell growth, NCI panel, 48 h

Row | Structure (SMILES) | TGI
40 | CCCCCCCCCCCCCCCCP(=O)(O)OCC(N)C(=O)O (configuration not stated) | 72.3 µM
41 | O=C(CSc1ncccn1)N/N=C/c1ccccc1OCc1ccccc1 | 46 µM
42 | CN1CCCC2C(c3ccccc3)C(C3=NCCCC3)C(c3ccccc3)CC21 (configuration not stated) | 31.3 µM

Test system: EKVX NSCLC
Test: inhibition of tumour cell growth, NCI panel, 48 h

Row | Structure (SMILES) | TGI
43 | CCCCCCCCCCCCCCCCP(=O)(O)OCC(N)C(=O)O (configuration not stated) | > 100 µM
44 | O=C(CSc1ncccn1)N/N=C/c1ccccc1OCc1ccccc1 | 83.1 µM
45 | CN1CCCC2C(c3ccccc3)C(C3=NCCCC3)C(c3ccccc3)CC21 (configuration not stated) | > 100 µM

Test system: HS 578T breast
Test: inhibition of tumour cell growth, NCI panel, 48 h

Row | Structure (SMILES) | TGI
46 | CCCCCCCCCCCCCCCCP(=O)(O)OCC(N)C(=O)O (configuration not stated) | > 100 µM
47 | O=C(CSc1ncccn1)N/N=C/c1ccccc1OCc1ccccc1 | 95.3 µM
48 | CN1CCCC2C(c3ccccc3)C(C3=NCCCC3)C(c3ccccc3)CC21 (configuration not stated) | 96.7 µM

Test system: SF-268 CNS
Test: inhibition of tumour cell growth, NCI panel, 48 h

Row | Structure (SMILES) | TGI
49 | CCCCCCCCCCCCCCCCP(=O)(O)OCC(N)C(=O)O (configuration not stated) | 74 µM
50 | O=C(CSc1ncccn1)N/N=C/c1ccccc1OCc1ccccc1 | > 100 µM
51 | CN1CCCC2C(c3ccccc3)C(C3=NCCCC3)C(c3ccccc3)CC21 (configuration not stated) | > 100 µM

Test system: LOX IMVI melanoma
Test: inhibition of tumour cell growth, NCI panel, 48 h

Row | Structure (SMILES) | TGI
52 | CCCCCCCCCCCCCCCCP(=O)(O)OCC(N)C(=O)O (configuration not stated) | 40.1 µM
53 | O=C(CSc1ncccn1)N/N=C/c1ccccc1OCc1ccccc1 | 36.4 µM
54 | CN1CCCC2C(c3ccccc3)C(C3=NCCCC3)C(c3ccccc3)CC21 (configuration not stated) | 55.2 µM

Test system: SF-295 CNS
Test: inhibition of tumour cell growth, NCI panel, 48 h

Row | Structure (SMILES) | TGI
55 | CCCCCCCCCCCCCCCCP(=O)(O)OCC(N)C(=O)O (configuration not stated) | 44.8 µM
56 | O=C(CSc1ncccn1)N/N=C/c1ccccc1OCc1ccccc1 | 50.9 µM
57 | CN1CCCC2C(c3ccccc3)C(C3=NCCCC3)C(c3ccccc3)CC21 (configuration not stated) | > 100 µM
